Patent US20140343000A1 (priority 2011, published 2014)

Each molecule was assayed on recombinant NL4-3 virus (Renilla luciferase in nef, Gag P373S; NLRluc) in MT-2 cells (assay: whole plant or invertebrate). Settings: Renilla, NL43, luciferase activity in cells infected for 4-5 days with NLRluc recombinants, serial dilutions of inhibitor; class symbols (key in Table 1); read-out: EC50.
Format: cell-based, HIV
Procedure: MT-2 cells and 293T cells were obtained from the NIH AIDS Research and Reference Reagent Program. MT-2 cells were propagated in RPMI 1640 media supplemented with 10% heat inactivated fetal bovine serum, […]. The 293T cells were propagated in DMEM media supplemented with 10% heat inactivated fetal bovine serum (FBS), 100 units/ml penicillin G and 100 μg/ml streptomycin. The proviral DNA clone of NL4-3 was obtained from the NIH AIDS Research and Reference Reagent Program. A recombinant NL4-3 virus, in which a section of the nef gene from NL4-3 was replaced with the Renilla luciferase gene, was used as a reference virus. In addition, residue Gag P373 was converted to P373S. Briefly, the recombinant virus was prepared by transfection of the altered proviral clone of NL4-3. Transfections were performed in 293T cells using LipofectAMINE PLUS from Invitrogen (Carlsbad, Calif.), according to manufacturer's instruction. The virus was titered in MT-2 cells using luciferase enzyme activity as a marker. Luciferase was quantitated using the Dual Luciferase kit from Promega (Madison, Wis.), with modifications to the manufacturer's protocol. The diluted Passive Lysis solution was pre-mixed with the re-suspended Luciferase Assay Reagent and the re-suspended Stop & Glo Substrate (2:1:1 ratio). Fifty (50) μL of the mixture was added to each aspirated well on assay plates and luciferase activity was measured immediately on a Wallac TriLux (Perkin-Elmer). Antiviral activities of inhibitors toward the recombinant virus were quantified by measuring luciferase activity in cells infected for 4-5 days with NLRluc recombinants in the presence serial dilutions of the inhibitor. Table 1 is the key for the data in Table 2.
`C=C(C)[C@@H]1CC[C@]2(NC(=O)N3CCN(C(=O)OC(C)(C)C)CC3CO)CC[C@]3(C)[C@H](CC[C@@H]4[C@@]5(C)CC=C(c6ccc(C(=O)O)cc6)C(C)(C)[C@@H]5CC[C@]43C)[C@@H]12` (mixture of isomers) [Example 61, 4-((1R,3aS,5aR,5bR,7aR,11aS,11bR,13aR,13bR)-3a-(4-(tert-butoxycarbonyl)-2-(hydroxymethyl)piperazine-1-carboxamido)-5a,5b,8,8,11a-pentamethyl-1-(prop-1-en-2-yl)-2,3,3a,4,5,5a,5b,6,7,7a,8,11,11a,11b,12,13,13a,13b-octadecahydro-1H-cyclopenta[a]chrysen-9-yl)benzoic acid] was tested, and the EC50 was under 0.1 µM. In the case of `C=C(C)[C@@H]1CC[C@]2(NC(=O)N3CCN(C(=O)OC(C)(C)C)CC3C(=O)O)CC[C@]3(C)[C@H](CC[C@@H]4[C@@]5(C)CC=C(c6ccc(C(=O)O)cc6)C(C)(C)[C@@H]5CC[C@]43C)[C@@H]12` (mixture of isomers) [Example 62, 4-(tert-butoxycarbonyl)-1-((1R,3aS,5aR,5bR,7aR,11aS,11bR,13aR,13bR)-9-(4-carboxyphenyl)-5a,5b,8,8,11a-pentamethyl-1-(prop-1-en-2-yl)-2,3,3a,4,5,5a,5b,6,7,7a,8,11,11a,11b,12,13,13a,13b-octadecahydro-1H-cyclopenta[a]chrysen-3a-ylcarbamoyl)piperazine-2-carboxylic acid], the EC50 is reported as under 0.1 µM. `C=C(C)[C@@H]1CC[C@]2(NC(=O)N3CCNC(C(=O)O)C3)CC[C@]3(C)[C@H](CC[C@@H]4[C@@]5(C)CC=C(c6ccc(C(=O)O)cc6)C(C)(C)[C@@H]5CC[C@]43C)[C@@H]12` (mixture of isomers) [Example 63, 4-((1R,3aS,5aR,5bR,7aR,11aS,11bR,13aR,13bR)-9-(4-carboxyphenyl)-5a,5b,8,8,11a-pentamethyl-1-(prop-1-en-2-yl)-2,3,3a,4,5,5a,5b,6,7,7a,8,11,11a,11b,12,13,13a,13b-octadecahydro-1H-cyclopenta[a]chrysen-3a-ylcarbamoyl)piperazine-2-carboxylic acid] gave an EC50 of under 0.1 µM. Work on `C=C(C)[C@@H]1CC[C@]2(NC(=O)N3CCNCC(O)C3)CC[C@]3(C)[C@H](CC[C@@H]4[C@@]5(C)CC=C(c6ccc(C(=O)O)cc6)C(C)(C)[C@@H]5CC[C@]43C)[C@@H]12` (mixture of isomers) [Example 64, 4-((1R,3aS,5aR,5bR,7aR,11aS,11bR,13aR,13bR)-3a-(6-hydroxy-1,4-diazepane-1-carboxamido)-5a,5b,8,8,11a-pentamethyl-1-(prop-1-en-2-yl)-2,3,3a,4,5,5a,5b,6,7,7a,8,11,11a,11b,12,13,13a,13b-octadecahydro-1H-cyclopenta[a]chrysen-9-yl)benzoic acid] yielded an EC50 of under 0.1 µM. `C=C(C)[C@@H]1CC[C@]2(NC(=O)C(c3ccccc3)N3CCS(=O)(=O)CC3)CC[C@]3(C)[C@H](CC[C@@H]4[C@@]5(C)CC=C(c6ccc(C(=O)O)cc6)C(C)(C)[C@@H]5CC[C@]43C)[C@@H]12` (single isomer, unassigned) [Example 91] gave an EC50 of under 0.1 µM. In the case of `C=C(C)[C@@H]1CC[C@]2(NC(=O)C(C(C)C)N3CCS(=O)(=O)CC3)CC[C@]3(C)[C@H](CC[C@@H]4[C@@]5(C)CC=C(c6ccc(C(=O)O)cc6)C(C)(C)[C@@H]5CC[C@]43C)[C@@H]12` (single isomer, unassigned) [Example 110], the EC50 is reported as under 0.1 µM. In the case of `C=C(C)[C@@H]1CC[C@]2(N)CC[C@]3(C)[C@H](CC[C@@H]4[C@@]5(C)CC=C(c6ccc(C(=O)O)cc6)C(C)(C)[C@@H]5CC[C@]43C)[C@@H]12` [Example 1, 4-((1R,3aS,5aR,5bR,7aR,11aS,11bR,13aR,13bR)-3a-amino-5a,5b,8,8,11a-pentamethyl-1-(prop-1-en-2-yl)-2,3,3a,4,5,5a,5b,6,7,7a,8,11,11a,11b,12,13,13a,13b-octadecahydro-1H-cyclopenta[a]chrysen-9-yl)benzoic acid], the EC50 is reported as under 0.1 µM. `C=C(C)[C@@H]1CC[C@]2(NC(=O)NCC3(NC(=O)OC(C)(C)C)CC3)CC[C@]3(C)[C@H](CC[C@@H]4[C@@]5(C)CC=C(c6ccc(C(=O)O)cc6)C(C)(C)[C@@H]5CC[C@]43C)[C@@H]12` [Example 2] gave an EC50 of under 0.1 µM. Molecule `C=C(C)[C@@H]1CC[C@]2(NC(=O)NC3(C(=O)O)CC3)CC[C@]3(C)[C@H](CC[C@@H]4[C@@]5(C)CC=C(c6ccc(C(=O)O)cc6)C(C)(C)[C@@H]5CC[C@]43C)[C@@H]12` [Example 4, 4-((1R,3aS,5aR,5bR,7aR,11aS,11bR,13aR,13bR)-3a-(3-(1-carboxycyclopropyl)ureido)-5a,5b,8,8,11a-pentamethyl-1-(prop-1-en-2-yl)-2,3,3a,4,5,5a,5b,6,7,7a,8,11,11a,11b,12,13,13a,13b-octadecahydro-1H-cyclopenta[a]chrysen-9-yl)benzoic acid] has an EC50 of over 0.1 µM. `C=C(C)[C@@H]1CC[C@]2(NC(=O)NC(C)(C)CN3CCOCC3)CC[C@]3(C)[C@H](CC[C@@H]4[C@@]5(C)CC=C(c6ccc(C(=O)O)cc6)C(C)(C)[C@@H]5CC[C@]43C)[C@@H]12` [Example 5, 4-((1R,3aS,5aR,5bR,7aR,11aS,11bR,13aR,13bR)-5a,5b,8,8,11a-pentamethyl-3a-(3-(2-methyl-1-morpholinopropan-2-yl)ureido)-1-(prop-1-en-2-yl)-2,3,3a,4,5,5a,5b,6,7,7a,8,11,11a,11b,12,13,13a,13b-octadecahydro-1H-cyclopenta[a]chrysen-9-yl)benzoic acid] gave an EC50 of under 0.1 µM. `C=C(C)[C@@H]1CC[C@]2(NC(=O)NCC(C)(C)N3CCOCC3)CC[C@]3(C)[C@H](CC[C@@H]4[C@@]5(C)CC=C(c6ccc(C(=O)O)cc6)C(C)(C)[C@@H]5CC[C@]43C)[C@@H]12` [Example 6, 4-((1R,3aS,5aR,5bR,7aR,11aS,11bR,13aR,13bR)-5a,5b,8,8,11a-pentamethyl-3a-(3-(2-methyl-2-morpholinopropyl)ureido)-1-(prop-1-en-2-yl)-2,3,3a,4,5,5a,5b,6,7,7a,8,11,11a,11b,12,13,13a,13b-octadecahydro-1H-cyclopenta[a]chrysen-9-yl)benzoic acid] showed an EC50 of under 0.1 µM. Molecule `C=C(C)[C@@H]1CC[C@]2(NC(=O)NC3(CN(CC)CC)CC3)CC[C@]3(C)[C@H](CC[C@@H]4[C@@]5(C)CC=C(c6ccc(C(=O)O)cc6)C(C)(C)[C@@H]5CC[C@]43C)[C@@H]12` [Example 7, 4-((1R,3aS,5aR,5bR,7aR,11aS,11bR,13aR,13bR)-3a-(3-(1-((diethylamino)methyl)cyclopropyl)ureido)-5a,5b,8,8,11a-pentamethyl-1-(prop-1-en-2-yl)-2,3,3a,4,5,5a,5b,6,7,7a,8,11,11a,11b,12,13,13a,13b-octadecahydro-1H-cyclopenta[a]chrysen-9-yl)benzoic acid] has an EC50 of under 0.1 µM. Work on `C=C(C)[C@@H]1CC[C@]2(NC(=O)NC3(CN4CCCCC4)CC3)CC[C@]3(C)[C@H](CC[C@@H]4[C@@]5(C)CC=C(c6ccc(C(=O)O)cc6)C(C)(C)[C@@H]5CC[C@]43C)[C@@H]12` [Example 8, 4-((1R,3aS,5aR,5bR,7aR,11aS,11bR,13aR,13bR)-5a,5b,8,8,11a-pentamethyl-3a-(3-(1-(piperidin-1-ylmethyl)cyclopropyl)ureido)-1-(prop-1-en-2-yl)-2,3,3a,4,5,5a,5b,6,7,7a,8,11,11a,11b,12,13,13a,13b-octadecahydro-1H-cyclopenta[a]chrysen-9-yl)benzoic acid] yielded an EC50 of under 0.1 µM.

Same assay, conditions: Renilla, NL43, luciferase activity in cells infected for 4-5 days with NLRluc recombinants, serial dilutions of inhibitor; numeric values; read-out: EC50
`C=C(C)[C@@H]1CC[C@]2(NC(=O)NCCN(C)C)CC[C@]3(C)[C@H](CC[C@@H]4[C@@]5(C)CC=C(c6ccc(C(=O)O)cc6)C(C)(C)[C@@H]5CC[C@]43C)[C@@H]12` [Example 3, 4-((1R,3aS,5aR,5bR,7aR,11aS,11bR,13aR,13bR)-3a-(3-(2-(dimethylamino)ethyl)ureido)-5a,5b,8,8,11a-pentamethyl-1-(prop-1-en-2-yl)-2,3,3a,4,5,5a,5b,6,7,7a,8,11,11a,11b,12,13,13a,13b-octadecahydro-1H-cyclopenta[a]chrysen-9-yl)benzoic acid] was tested, and the EC50 was 0.004 µM.

Same assay, conditions: luciferase activity in cells infected for 4-5 days with NLRluc recombinants, serial dilutions of inhibitor; class symbols (key in Table 1); read-out: EC50
`C=C(C)[C@@H]1CC[C@]2(NC(=O)C(c3ccccc3)N3CCS(=O)(=O)CC3)CC[C@]3(C)[C@H](CC[C@@H]4[C@@]5(C)CC=C(c6ccc(C(=O)O)cc6)C(C)(C)[C@@H]5CC[C@]43C)[C@@H]12` (single isomer, unassigned) [Example 92] was tested, and the EC50 was under 0.1 µM. Molecule `C=C(C)[C@@H]1CC[C@]2(NC(=O)C(C(C)C)N3CCS(=O)(=O)CC3)CC[C@]3(C)[C@H](CC[C@@H]4[C@@]5(C)CC=C(c6ccc(C(=O)O)cc6)C(C)(C)[C@@H]5CC[C@]43C)[C@@H]12` (single isomer, unassigned) [Example 111] has an EC50 of under 0.1 µM.
